Measurements as given in a melting point compilation (Tetko et al.; mined from patent text by program, amines drawn as free bases though some values may be those of a salt).

| Structure (SMILES) | melting point [°C] |
| --- | --- |
| CC(Cl)C(=O)Oc1coccc1=S (configuration not stated) | 118 to 119 |
| Cc1cccc(SCn2cc(Br)cnc2=O)c1 | 164 |
| NC(=O)c1ccccc1-c1cnn(CCN2CCCCC2)c1 | 168 |
| CCN1C(=O)C(C(=O)Nc2ccc(F)cc2F)c2cc(C3(C)OCCO3)ccc21 (configuration not stated) | 166 to 170 |
| CN1C(=O)N=NC1CSc1ccccc1OCCc1coc(-c2ccccc2)n1 (configuration not stated) | 130 to 132 |
| Cc1cc(C)cc(Sc2c(C)c[nH]c(=O)c2NC=O)c1 | 221 to 222 |
| COC(=O)C1CCCCc2c(-c3ccc(Cl)cc3)noc2C1 (configuration not stated) | 65 to 69 |
| CCCCCCCC(=O)NCc1ccccc1 | 76 to 78 |
| Cc1ccc(CNC(=O)c2nc(N3CCOCC3)n(C)c(=O)c2O)cc1F | 166 to 167 |
| Cn1cc(-c2cccc(C(F)(F)F)c2)c(=O)c(C2CC=CCC2)c1 (configuration not stated) | 194 to 195 |
| CC(c1oc2ccccc2c(=O)c1-c1cccc(F)c1)n1nc(-c2ccccc2CO)c2c(N)ncnc21 (configuration not stated) | 185 to 189 |
| O=C(O)[C@H](Cc1ccccc1)NS(=O)(=O)N1CCOCC1 | 157 to 158 |
| CN1CCC(NC(=O)c2cc(Cl)cc3oc(-c4ccccc4)nc23)CC1 | 170 to 172 |
| CCOC(=O)c1c(=O)c2cc3c(cc2n2c(C)csc12)OCO3 | 308 to 311 |
| Cc1cc2c(cc1CO)CCC(CCN1CCCC1)=C2 | 76 to 77 |
| CCOC(=O)c1nc(SC)nc(OC)c1OCc1ccccc1 | 48 to 49 |
| Cn1c(CCNC(=O)c2cc(F)cc3c2OCOC3)nc(-c2ccncn2)cc1=O | 207 to 209 |
| CC1CCN(Cc2ccc(COc3cccc4c3CN(C3CCC(=O)NC3=O)C4=O)cc2)CC1 (configuration not stated) | 189 to 191 |
| COC(=O)c1ccc(OCC2CC(=O)N(c3ccc(N)cc3)C2)cc1 (configuration not stated) | 136 to 138 |
| CON1C=C2N=Nc3cc(-c4ccccc4)cnc3N2C1 | 225 to 227 |
| Cc1cccc(C)c1C(c1cccc2ccccc12)C(C#N)C(=O)OC(C)(C)C (configuration not stated) | 124 to 128 |
| CN1CCC(c2c[nH]c3ccc(NC(=O)c4ccc(F)s4)nc23)CC1 | 244 to 245 |
| O=[N+]([O-])c1cc(NS(=O)(=O)CCl)ccc1F | 112 to 113 |
| O=C(O)C(=O)CC(=O)c1cccn1Cc1ccc(-c2ccccc2)cc1 | 189 to 191 |

| Structure (SMILES) | melting point [°C] |
| --- | --- |
| COc1c(C)c(C)cc(C)c1C(O)(c1ccc(C)cc1)C(C)C (configuration not stated) | 103 to 104 |
| CCS(=O)(=O)CCn1c(=N)sc2cc(C(F)(F)C(F)(F)F)ccc21 | 125 |
| Nc1nc(OCc2ccccc2)c2ncn(CC(=O)O)c2n1 | 159 to 165 |
| O=C(O)COc1ccc(F)cc1C(=O)NCc1ccc(Br)cc1F | 145 to 146 |
| Cc1cccc(OCCOc2cccc(C)c2)c1 | 98 |
| CCCCCCCCCCC[C@H](CC(=O)N[C@@H](CO)CCCNC(=O)OCc1ccccc1)OCc1ccccc1 | 118 |
| COc1ccc(-c2cc3c(N4CCc5ccccc54)ncnc3[nH]2)cc1 | > 300 |
| CN1CCN(c2cccc(-c3cnn4c(N)c(Cc5ccccc5)cnc34)c2)CC1 | 72 to 75 |
| COc1ccc2nc(COc3ccc(F)c(C(N)=O)c3F)sc2c1 | 190 to 192 |
| CC(C)c1cccc(C(C)C)c1NC(=O)CS(=O)(=O)CCN1CCN(c2ccccc2)CC1 | 197 to 200 |
| NS(=O)(=O)c1cccc(NC(=O)c2cnn3c(C(F)F)cc(-c4ccc(C(F)(F)F)cc4)nc23)c1 | 258 |
| CN1C(=O)C2CC(c3ccc(Cl)cc3)(C2)C1=O | 155 to 156 |
| Cc1nn(-c2cc(OS(C)(=O)=O)c(Cl)cc2F)c(C)c1C | 123 to 125 |
| O=[N+]([O-])c1ccc(NS(=O)(=O)c2ccccc2)cc1 | 137 |
| Nc1ccc2c(c1)CCC1CC(=O)NN=C21 (configuration not stated) | 290 to 291 |
| O=Cc1ccc2c(c1)C13CC2c2ccccc2C1CN(CC1CCCC1)C3 (configuration not stated) | 170 to 175 |
| COC(=O)OCCNC(=O)C(F)(F)Cc1c[nH]c([N+](=O)[O-])n1 | 50.5 to 52.5 |
| CCCCCC/C=C/[C@@H](O)[C@H](CO)N=[N+]=[N-] | 29 to 30 |
| CN1C(=O)CC[C@]2(C)c3ccc(-c4ccc5ncccc5c4)cc3CC[C@@H]12 | 185 to 190 |
| CC(=O)N1N=C(c2ccncc2)OC1(C)C | 117 to 118 |
| CCC(CC)(CC(=O)Nc1cccc(OCc2ccc3ccc(OCc4ccccc4)cc3n2)c1)C(=O)O | 89 to 95 |
| COc1cc2ncc(C#N)c(Nc3ccc(F)c(Cl)c3)c2cc1NC(=O)CC(CN1CCC(O)C1)N1CCC(O)C1 (configuration not stated) | 139 to 143 |
| CCOC(=O)c1ccc(-c2csc(-c3ccccc3)n2)cc1 | 72 to 73 |
| CCCn1c(=O)c2[nH]c(-c3cc(C)n(CC(=O)Nc4cccc5ccccc45)n3)nc2n(CCC)c1=O | > 300 |

| Structure (SMILES) | melting point [°C] |
| --- | --- |
| COc1ccc2nc(Cl)cc(C=CN(C)C)c2c1 | 162 to 164 |
| CC1CC(=O)N(CCCCN2CCN(c3ncccn3)CC2)S(=O)(=O)N1 (configuration not stated) | 115 to 117 |
| O=C(Nc1ccccc1)C1=C(O)c2ccccc2N(c2ccccc2)C1 | 120 |
| C(=NNc1cc(N2CCOCC2)nc(OCCc2ccccn2)n1)c1c[nH]c2ccccc12 | 160 to 165 |
| O=C1Nc2ccc(C3CCCCC3)cc2C12OCCO2 | 178 to 180 |
| Cc1ccccc1NS(=O)(=O)c1ccc(Br)cc1 | 114 |
| COc1ccc(C(=O)c2sccc2OC)cc1 | 98 to 99 |
| CC(=O)c1cc2c(C(C)=O)c(OCC3CO3)ccc2o1 (configuration not stated) | 114 |
| CCOC(=O)C1=C(CCC(OC(=O)c2ccc([N+](=O)[O-])cc2)c2ccccc2)NC(C)=C(C(=O)OC)C1c1cccc([N+](=O)[O-])c1 (configuration not stated) | 75 to 90 |
| Cc1cc(NCCO)c2nn(C)c(C)c2n1 | 186 to 189 |
| Cc1nnc2n1-c1sc3c(c1C(c1ccccc1Cl)=NC2)CCN(C(=S)NCc1ccccc1C(F)(F)F)C3 | 178 to 184 |
| CCc1nc2cc(C)c(Cl)nc2n1-c1ccc(CCNC(=O)NS(=O)(=O)c2ccc(C)cc2)cc1 | 205 to 206 |
| O/C(=C\c1nc2ccccc2c2nccn12)c1cccs1 | 128 |
| N[C@@H](Cc1ccccc1)[C@@H](O)C(F)(F)C(=O)NCc1ccccc1 | 128 to 130 |
| O=c1cc[nH]c2c([N+](=O)[O-])cc(Cl)cc12 | 238 to 241 |
| COC(=O)C(C#N)CC(=S)c1ccc(C)cc1 (configuration not stated) | 88 to 90 |
| N#Cc1cc(C=O)cnc1Br | 105 to 106 |
| CCCCCCC[C@H]1CC[C@H](COc2ccc(O)cc2)CC1 | 107 to 108 |
| O=C(Nc1ccc2c(c1)OCCO2)c1ccc2cc(Br)ccc2c1 | 223 |
| CN(N=Cc1c[nH]c2ccccc12)c1cc(N2CCOCC2)nc(OCCc2ccccn2)n1 | 130 to 140 |
| CC1(C)CC(=C[C@H]2[C@H](C(=O)O)C2(C)C)CC(C)(C)C1 (relative stereo) | 116 |
| COCCCn1c(C(=O)O)cc2c3c(c(-c4ccccc4Cl)cc21)C(=O)NC3=O | 272 to 274 |
| CCCc1cc(-c2noc3cc(O)ccc23)c(CC)cc1O | 125 to 127 |
| COc1ccccc1NC(=O)Nc1ccc2c(c1)CCN(C(=O)Nc1ccc(OCCO)cc1Cl)C2 | 130 to 135 |
